{
  "source": "patent US6406853B1",
  "about": "“Interventions to mimic the effects of calorie restriction” (The Regents of the University of California, priority 1999, dated 2002)",
  "key": {"GRP78 mRNA": {"test_system": "GRP78 mRNA", "assay": "Hepatic GRP78 mRNA in fasted and refed mice (dot-blot)", "assay_type": "in vivo", "conditions": "liver; for GRP78 mRNA response to feeding (refed mice): fasted 48 h, i.p. injection 30 min before and 30 min after feeding, killed 1.5 h after feeding, dibutyryl-cAMP given with theophylline; for GRP78 mRNA in fasted mice: mice fasted 48 h, two i.p. injections; for postprandial induction of GRP78 mRNA in STZ-diabetic mice: STZ-induced diabetes combined with dibutyryl-cAMP and theophylline", "experimental": "(§1) Retired male Swiss-Webster breeder mice were purchased from Jackson Laboratories. Beginning 30 days before the studies, the mice were fed Monday and Wednesday 11 g and Friday 16.6 g of the control diet daily at 0900 h. In fasting-feeding studies, mice were deprived of food for 48 h, fed 5.5 g of the control diet at 0900 h, and killed 90 min later. The food was consumed within 30 min. Diabetes was induced by three weekly intraperitoneal injections of streptozotocin [10 mg/100 g body weight (b.w.)] in 50 mM sodium citrate, pH 4.5. Mice were diabetic one week after the last injection. Only mice with blood glucose level higher than 3 mg/ml were used. Mice injected with equivalent volumes of sodium citrate served as controls for the STZ-diabetic mice. Adrenalectomized and sham-operated mice were purchased from Jackson Laboratories. Dibutyryl cAMP (Sigma; 18 mg.100 g b.w.), and theophylline (Sigma; 3 mg/100 g b.w), glucagon (Sigma; 300 μg/100 g b.w.), dexamethasone (Sigma; 125 μg/100 g b.w), cycloheximide (Sigma; 4 mg.100 g b.w.), and puromycin (Sigma; 10 mg.100 g b.w.), were administered intraperitonealy to mice as specified in the figure legends. Mice received two doses of each drug or drug combination. The first injection was administered 30 min before feeding, and the second injection was administered 30 min after feeding. Mice were killed 1.5 h after the start of feeding. Drug-injected mice consumed similar amounts of food as control animals during the feeding period. All animal use protocols were approved by the institutional animal use committee of the University of California, Riverside.\nMice were killed and the livers, kidneys, and muscle were removed. Muscle from the hind legs and back was removed and pooled for each animal. Tissues were flash frozen in liquid nitrogen. Approximately 0.2 g of frozen tissue was homogenized for 40 s in 4 ml of TRI Reagent (Molecular Research Center, Cincinnati, Ohio) using a Tekmar Tissuemizer (Tekmar, Cincinnait, Ohio) at a setting of 55. RNA was isolated as described by the TRI Reagent supplier. RNA was resuspended in FORMAzol (Molecular Research Center) and Northern and dot blots were performed using 20 and 10 μg of RNA respectively. The RNA was analyzed using Northern blots to verify its integrity. Dot blots were used to quantify mRNA levels (24; 27). Specific mRNA levels were normalized to the level of total RNA and/or mRNA present in each sample using hybridization with radiolabeled complementary DNA to 18S rRNA and/or transcription factor S-II, as indicated in the figure legends (12; 27). The murine ERp72 2.5 kb cDNA was excised with BamHI from pcD72-1 (19). The 1235 bp murine GRP75 coding fragment was excised with HindIII from pG7z-PBP1.8 (6). A 1.5 kb coding fragment of GRP78 cDNA was produced by digestion of p3C5 with EcoRI and PstI (15). A 1.4 kb hamster GRP94 coding fragment was produced by EcoRI and Sa/K digestion of p4A3 (15). A 664 bp coding fragment of rat calreticulin (nucleotides 148 to 812) was produced by PCR from GT10.U1 (23). The entire 2.4 kb cDNA of murine PDI was excised from pGEM59.4 with SacI and BamHII (19). A 1 kb coding fragment of hamster GRP170 cDNA was excised with EcoRI and XhoI from pCRtmII (16). The 1.9 kb cDNA of murine ERp57 was excised with HindIII and SstI from pERp61 (18). The 1 kb cDNA of murine HSC70 was excised with PstI from phsc1.5 (9). The 1.3 kb PEPCK coding fragment was produced by SphI followed by SalI digestions of pGEM5ZEP (a gift from Dr. Ganner D. K. Vanderbilt University School of Medicine, Nashville, Tenn.). The fragments were isolated by agarose gel electrophoresis and radioactively labeled using a ^T7QuickPrime Kit (Pharmacia) according to the manufacturer's instructions."}, "hepatic gene expression": {"test_system": "hepatic gene expression", "assay": "Global hepatic gene expression profile (GeneChip arrays, correlation coefficients)", "assay_type": "in vivo, mice", "experimental": "GeneChip oligonucleotide-based high-density array RNA expression assays were performed according to the standard Affrymetrix protocol. The biotinylated, fragmented cRNA was hybridized to the Mu11KsubA and Mu11KsubB GeneChip arrays (Affymetrix, Santa Clara, Calif.), which contain targets for more than 11,000 known mouse genes and ESTs. The arrays were washed, stained and scanned. Scanned image analysis and data quantification were performed using the Affymetrix GeneChip analysis suite v3.2 at default parameter settings. Resultant data were normalized by global scaling.\nData analysis. Data sets were normalized furher using GeneSpring 3.0 (Silicon Genetics, San Carlos, Calif.). Negative expression levels were forced to zero, and the expression data for each animal divided by the median of all experimental values for that chip above an expression level of 10. This step reduced cliip-to-chip signal variation. Fold change in expression was calculated by dividing the mean of the expression levels in the CR groups by the mean of the expression levels in the control group."}, "[1]": {"conditions": "STZ-treated animals; general statement; cited from earlier work"}, "Life span of mice": {"assay": "Life span of mice", "assay_type": "in vivo", "conditions": "mice fed aminoguanidine"}, "PEPCK mRNA": {"test_system": "PEPCK mRNA", "assay": "Hepatic PEPCK mRNA in fasted and refed mice (positive control)", "assay_type": "in vivo", "conditions": "liver; mice fasted 48 h or refed", "experimental": "as §1, with “The first injection was administered 30 min before feeding, and the second injection was administered 30 min after feeding. Mice were killed 1.5 h after the start of feeding. Drug-injected mice consumed similar amounts of food as control animals during the feeding period. All animal use protocols were approved by the institutional animal use committee of the University of California, Riverside.” left out\nMice were killed and the livers, kidneys, and muscle were removed. […] The RNA was analyzed using Northern blots to verify its integrity. Dot blots were used to quantify mRNA levels (24; 27). […]"}},
  "note": "“Also recorded” adds a separate entry of the source. Read-outs that look alike come from different tables or passages of the source.",
  "data": [
    {"compound": "CN(N=O)C(=O)N[C@H]1C(O)O[C@H](CO)[C@@H](O)[C@@H]1O", "note": "(mixture of isomers) [STZ, streptozotocin]", "values": [
      {"measurement": "GRP78 mRNA response to feeding (refed mice)", "setting": "GRP78 mRNA", "result": "blunted response; also recorded: significantly reduced"},
      {"measurement": "GRP78 mRNA in fasted mice", "setting": "GRP78 mRNA", "result": "did not modify"},
      {"measurement": "hepatic gene expression compared with young CR and young control mice", "setting": "hepatic gene expression; STZ-diabetic mice, diabetic about 4 weeks", "result": "very different"},
      {"measurement": "effect on life span", "setting": "[1]", "result": "shortens"}
    ]},
    {"compound": "N=C(N)NN", "note": "[aminoguanidine, Aminoguanidine]", "values": [
      {"measurement": "correlation of gene expression with old CR or old control mice", "setting": "hepatic gene expression; mice fed aminoguanidine", "result": "did not correlate"},
      {"measurement": "effect on hepatic gene expression", "setting": "hepatic gene expression; mice fed aminoguanidine", "result": "large effect"},
      {"measurement": "effect on life span", "setting": "Life span of mice", "result": "little or no effect"}
    ]},
    {"compound": "C[C@@H]1C[C@@H]([C@H](O)CC2CC(=O)NC(=O)C2)C(=O)[C@@H](C)C1", "note": "[cycloheximide]", "values": [
      {"measurement": "GRP78 mRNA response to feeding (refed mice)", "setting": "GRP78 mRNA", "result": "strongly induced"},
      {"measurement": "GRP78 mRNA in fasted mice", "setting": "GRP78 mRNA", "result": "strongly induced; also recorded: induced the mRNA to the same extent"},
      {"measurement": "PEPCK mRNA in both fasted and refed mice", "setting": "PEPCK mRNA", "result": "increased"}
    ]},
    {"compound": "CCCC(=O)Nc1ncnc2c1ncn2[C@@H]1O[C@@H]2COP(=O)(O)O[C@H]2[C@H]1OC(=O)CCC", "note": "[dibutyryl cAMP, Dibutyryl cAMP]", "values": [
      {"measurement": "postprandial induction of GRP78 mRNA in STZ-diabetic mice", "setting": "GRP78 mRNA; listed as cAMP", "result": "obliterated"},
      {"measurement": "postprandial induction of GRP78 mRNA in STZ-diabetic mice", "setting": "GRP78 mRNA; listed as dibutyryl-cAMP", "result": "absence of a feeding response"},
      {"measurement": "GRP78 mRNA response to feeding (refed mice)", "setting": "GRP78 mRNA", "result": "reduced the response"},
      {"measurement": "GRP78 mRNA response to feeding (refed mice)", "setting": "GRP78 mRNA; listed as dibutyryl-cAMP", "result": "blunted"}
    ]},
    {"compound": "COc1ccc(C[C@H](N)C(=O)N[C@H]2[C@@H](O)[C@H](n3cnc4c(N(C)C)ncnc43)O[C@@H]2CO)cc1", "note": "[puromycin]", "values": [
      {"measurement": "GRP78 mRNA response to feeding (refed mice)", "setting": "GRP78 mRNA", "result": "fully induced"},
      {"measurement": "GRP78 mRNA in fasted mice", "setting": "GRP78 mRNA", "result": "modestly induced; also recorded: partial induction"}
    ]},
    {"compound": "glucagon", "values": [
      {"measurement": "GRP78 mRNA response to feeding (refed mice)", "setting": "GRP78 mRNA", "result": "reduced the response; also recorded: blunted"}
    ]}
  ]
}
